{"source": "patent US20200157144A1", "about": "“ANTIMICROBIAL PEPTIDOMIMETICS” (priority 2017, published 2020)", "tested_on": "Mupirocin-resistant MRSA ATCC-BAA-1556", "experiment": "microbe, parasite or virus in culture", "format": "cell-based, Staphylococcus aureus", "conditions": "ATCC-BAA-1556; read-out: MIC", "method": "The MICs of test compounds were determined using the microdilution method from the Clinical and Laboratory Standards Institute (CLSI) guidelines (Clinical and Laboratory Standards Institute. Methods for dilution antimicrobial susceptibility tests for bacteria that grow aerobically; approved standard—ninth edition. Document M07-A9. Vol. 32 No. 2. Wayne, Pa.: CLSI; 2012). Briefly, bacteria were grown fresh from frozen stock in Mueller Hinton 2 (MH2) agar at 37° C. After an overnight incubation, 5 bacteria colonies were selected to grow in cation-adjusted MH2 broth in a shaking incubator (140 RPM) at 37° C. Cells were grown to an optical density (OD600) of 0.15-0.16 determined using a spectrophotometer (Molecular Devices Spectra Max Plus), which corresponds to ˜1×10^8 CFU/mL. Test compounds were constituted into 4 mM DMSO stock solutions and then subjected to 2-fold serial dilution in a 96-well plate with concentrations ranging from 100 to 0.195 μM in duplicates. […] of microbial culture containing ˜1×10^6 CFU/mL of microbes in the respective broths was introduced into each well containing 50 μL of compound solution. After an overnight incubation at 35° C., (220 RPM), OD600 measurements were conducted using the microplate spectrophotometer. The MIC was defined as the lowest antibiotic or compound concentration (μM) required to inhibit bacteria growth.\nThe 11th well was used as the growth control well (medium with bacterial inoculums, no antibacterial) while the 12th well was the sterility control well (medium only).", "note": "Square brackets hold non-standard residues; d marks the D form. Peptide text beside a SMILES is read from it. dBip(4'-Cl) = N[C@H](Cc1ccc(-c2ccc(Cl)cc2)cc1)C(=O)O; Bip = N[C@@H](Cc1ccc(-c2ccccc2)cc1)C(=O)O; Phe(4-Br) = N[C@@H](Cc1ccc(Br)cc1)C(=O)O; Phe(4-Cl) = N[C@@H](Cc1ccc(Cl)cc1)C(=O)O; Phe(4-Me) = Cc1ccc(C[C@H](N)C(=O)O)cc1", "data": [{"molecule": "N=C(N)NCCC[C@H](NC(=O)[C@H](Cc1ccc(-c2ccccc2)cc1)NC(=O)[C@H](CCCNC(=N)N)NC(=O)[C@@H](N)Cc1ccc(Cl)cc1)C(N)=O", "note": "[Compound 9] (H-[Phe(4-Cl)]R[Bip]R-NH2)", "values": [{"measurement": "MIC", "result": 100, "unit": "µM"}]}, {"molecule": "N=C(N)NCCC[C@H](NC(=O)[C@H](Cc1ccc(Br)cc1)NC(=O)[C@H](CCCNC(=N)N)NC(=O)[C@@H](N)Cc1ccc(-c2ccccc2)cc1)C(N)=O", "note": "[Compound 12] (H-[Bip]R[Phe(4-Br)]R-NH2)", "values": [{"measurement": "MIC", "result": 100, "unit": "µM"}]}, {"molecule": "N=C(N)NCCC[C@H](NC(=O)[C@H](Cc1ccc(-c2ccc(-c3ccccc3)cc2)cc1)NC(=O)[C@H](CCCNC(=N)N)NC(=O)[C@@H](N)Cc1ccc(-c2ccccc2)cc1)C(N)=O", "note": "[Compound 26]", "values": [{"measurement": "MIC", "result": 25, "unit": "µM"}]}, {"molecule": "Cc1ccc(C[C@H](NC(=O)[C@H](CCCNC(=N)N)NC(=O)[C@@H](N)Cc2ccc(-c3ccccc3)cc2)C(=O)N[C@@H](CCCNC(=N)N)C(N)=O)cc1", "note": "[Compound 8] (H-[Bip]R[Phe(4-Me)]R-NH2)", "values": [{"measurement": "MIC", "result": ">100", "unit": "µM"}]}, {"molecule": "CC(C)(C)c1cc(-c2ccc(C[C@H](NC(=O)[C@H](CCCNC(=N)N)NC(=O)[C@@H](N)Cc3ccc(-c4ccccc4)cc3)C(=O)N[C@@H](CCCNC(=N)N)C(N)=O)cc2)cc(C(C)(C)C)c1", "note": "[Compound 30]", "values": [{"measurement": "MIC", "result": 50, "unit": "µM"}]}, {"molecule": "N=C(N)NCCC[C@H](NC(=O)[C@H](Cc1ccc(-c2ccccc2)cc1)NC(=O)[C@H](CCCNC(=N)N)NC(=O)[C@@H](N)Cc1ccc(-c2cccc(Cl)c2)cc1)C(N)=O", "note": "[Compound 27]", "values": [{"measurement": "MIC", "result": 6.25, "unit": "µM"}]}, {"molecule": "N=C(N)NCCC[C@@H](N)C(=O)N[C@H](Cc1ccc(-c2ccc(Cl)cc2)cc1)C(=O)N[C@H](CCCNC(=N)N)C(=O)N[C@H](Cc1ccc(-c2ccc(Cl)cc2)cc1)C(=O)N[C@H](CCCNC(=N)N)C(N)=O", "note": "[Compound 39] (H-[dR][dBip(4'-Cl)][dR][dBip(4'-Cl)][dR]-NH2)", "values": [{"measurement": "MIC", "result": 3.125, "unit": "µM"}]}]}
